Results as given in article PMC2724550, “Citrus auraptene suppresses cyclin D1 and significantly delays N-methyl nitrosourea induced mammary carcinogenesis in female Sprague-Dawley rats” (BMC Cancer, 2009).

Experiments:
cyclin D1 = test: Western blot of cyclin D1 expression in rat mammary tumors; type: in vivo, female Sprague-Dawley rats; conditions: 500 ppm in diet, compared to MNU only group, n = 10 per group
Experimental: (§1) The mammary tumors from the female Sprague-Dawley rats were analyzed for cyclin D1 expression and eukaryotic Initiation Factor 4E (eIF4E) as previously described. Briefly, samples were first homogenized in RIPA buffer [50 mM Tris-HCL (pH 7.4), 1% Triton-X, 150 mM NaCl, 1 mM EDTA, 1 mM sodium orthovanadate, 1 mM PMSF, 1 μg of aprotinin, leupeptin and pepstatin and 1 mM sodium fluoride]. The proteins were measured by Bradford method (using BSA as a standard), followed by the addition of 2 × sample buffer [0.125 M Tris, 10% (w/v) SDS, 40% (v/v) glycerol, 0.04% (w/v) bromophenol blue, and 80 mM dithiothreitol]. Samples were heated to 95°C for 5 min, and 10 μg of protein/well was loaded and resolved. The proteins were then transferred and detected for cyclin D1 expression as mentioned above. Lysate from MCF-7 cells treated with IGF-1 was used as positive control for cyclin D1.
Figure 5 Effects of dietary auraptene on cyclin D1 expression in rat mammary tumors. From the same tumor study, rat mammary tumors were homogenized and the lysates were used for western blot to analyze the cyclin D1 expression. […] (+ statistically different from MNU group, * statistically different from Auraptene 200 group, p < 0.05, One-way ANOVA, Tukey test).

MDA-MB-231 cells = test: MDA-MB-231 cell proliferation assay (MTT); type: cell-based, human
Experimental: The human breast carcinoma cell line MDA-MB-231 was obtained from ATCC (Manassas, VA) and grown in a sterile humidified environment at 37°C and 5% CO2: 95% air with complete DMEM media. The proliferation study was done by MTT assay which uses a tetrazolium compound [3-(4, 5-dimethylthiazol-2-yl)-2,5-diphenyltetrazolium bromide; MTT], which is converted into a formazan product by living cells. The MDA-MB-231 cells were plated in a 96 well plate at 12,500 cells/well at a confluency of 40%. The serum containing media was replaced with serum free media 5 hrs before treatment. The cells were then treated with auraptene at 1 – 50 μM auraptene in DMSO (0.1%, v/v). The control cells received vehicle only (DMSO, 0.1% v/v). After 24 hrs of treatment the cells were treated with MTT for 2 h and the absorbance was measured at 540 nm.
Figure 2 Effects of auraptene on human breast carcinoma cells. (A) Effects of auraptene on MDA-MB-231 cell proliferation. Cells were serum starved for 5 h and then treated with 1–50 μM auraptene in […]. Cell proliferation was assessed using the MTT reagent. Figures represent % vehicle control (means ± S.E.) # Replicates = 2 plates at 6 wells each for the treatment groups and 12 wells for the control group (* statistically different from control group, p < 0.05, One-way ANOVA, Tukey test). (B) Effects of auraptene on MCF-7 cell proliferation. Cells were serum starved for 24 h. At 22 h after serum starvation the cells were treated with 1–50 μM auraptene in […]. At 24 h serum starvation, the cells were treated with IGF-1 (10 ng/mL). Cell proliferation was assessed using the MTS reagent. Figures represent % vehicle control (mean± S.E.) # Replicates = 2 plates at 6 wells each for the treatment groups. (* statistically different from IGF-1 group, p < 0.05, One-way ANOVA, Tukey test). (C) Effects of auraptene on IGF-1 induced cyclin D1 expression. MCF-7 cells were serum starved for 24 h. At 22 h after serum starvation the cells were treated with10 μM auraptene in […]. At 24 h serum starvation the cells were treated with IGF-1 (10 ng/mL). The cells were harvested at the 15, 30 minutes and at 1 h, 2 h, 4 h, 8 h and 24 h. The cell lysates were probed for cyclin D1. […] The lower band (36 KD) is cyclin D1 and the upper band is β-actin (43 KD).

[1] = test system: eukaryotic Initiation Factor 4E (eIF4E); test: Western blot of eIF4E expression in rat mammary tumors; type: in vivo, female Sprague-Dawley rats; conditions: dietary auraptene, data not shown
Experimental: as §1

[2] = parameters: method as in PMID 18444171; conditions: male Sprague-Dawley rats, cited from earlier work
[3] = Rat body weight and gross behavior in the tumor study; type: in vivo, female Sprague-Dawley rats
Text: Rats (28 days of age) were divided up randomly into groups of 24–26 each and were handled daily to get them accustomed to human touch. At 42 days of age the rats were shifted to the test diet. Control group and MNU only group were fed with Teklad (powdered diet) only. MNU/Auraptene 200 ppm group and MNU/Auraptene 500 ppm group received 200 ppm and 500 ppm of auraptene respectively, mixed in the diet for the duration of the study. The doses were selected from the pilot study conducted with a small number of animals. In addition to the 200 ppm dose of auraptene, which indicated the chemopreventive effect of auraptene, a higher dose of auraptene at 500 ppm was added to this study to see any increased chemopreventive effects. Auraptene has been administered in diet at 100 ppm and 500 ppm in other models of cancer. The diet was prepared once a week and stored in cold room. The food was replaced on Monday, Wednesday and Friday or as needed. […] At 50 days of age all the groups except the control group received intraperitoneal MNU injection (50 mg/kg bw in sterile acidified saline). The control group received vehicle only. […] Any tumors felt during palpation were recorded by location. […]
The rat body weight data was compared between groups by One-Way ANOVA followed by Tukey test. […] The cell proliferation assays and western blot data were analyzed by One-Way ANOVA followed by Tukey test.

c-Myc = test system: c-Myc; parameters: method as in PMID 16979634; conditions: 25 μM auraptene, HT-29 human colorectal cancer cells; cited from earlier work
[4] = 500 μmol/kg bw p.o. gavage, 1–4 h

**Q.** Which “reduction of cyclin D1 expression in rat mammary tumors” value (cyclin D1) does the source give for `CC(C)=CCC/C(C)=C/COc1ccc2ccc(=O)oc2c1` [auraptene] here?
**A.** 49%

**Q.** And the “reduction in MDA-MB-231 cell proliferation” value (MDA-MB-231 cells; 10 μM auraptene, 24 hrs, MTT)?
**A.** about 23%

**Q.** What about the “suppression of MDA-MB-231 cell proliferation” value (MDA-MB-231 cells; 25 μM auraptene, 24 hrs, MTT) of the same compound?
**A.** 85%

**Q.** What about the “suppression of MDA-MB-231 cell proliferation” value (MDA-MB-231 cells; 50 μM auraptene compared with 25 μM) of the same compound?
**A.** did not achieve any higher suppression of cell proliferation

**Q.** And the IC50 (MDA-MB-231 cells; Homo sapiens, MDA-MB-231, 24 hrs treatment, serum free media, MTT, read-out: concentration suppressing MDA-MB-231 cell proliferation by 50%)?
**A.** 12 µM

**Q.** What about the “eIF4E protein expression in rat mammary tumors” value [1] of the same compound?
**A.** no significant change

**Q.** What about the “concentration in large intestine” value [2, 4] of the same compound?
**A.** ≤ 20 nmol/g

**Q.** And the “concentration in small intestine” value [2, 4]?
**A.** ≤ 100 nmol/g

**Q.** And the concentration in stomach [2, 4]?
**A.** ~ 2000 nmol/g

**Q.** What about the hepatic concentration ([2]; within 1–4 h of oral administration) of the same compound?
**A.** ~ 25 μm

**Q.** What about the “effect on rat body weight” value ([3]; 200 and 500 ppm in diet, MNU treated groups) of the same compound?
**A.** did not significantly affect body weight

**Q.** And the tolerability in rats ([3]; dietary auraptene up to 500 ppm, no observable change in gross behavior, no significant weight loss)?
**A.** well tolerated

**Q.** And the “expression of c-Myc” value (c-Myc)?
**A.** suppressed the expression of c-Myc
